# In US9278941B2, “Azole derivative and uses thereof” (Kureha Corporation, priority 2011, dated 2016):
# Read-outs that look alike come from different tables or passages of the source.
# Columns and labels:
# [1] = tested on: Botrytis cinerea; assay: Gray mold disease control effect on cucumbers, foliar spray treatment; assay type: in vivo; conditions: cucumber gray mold, wettable powder foliar spray 1,000 L/ha, four days after inoculation
# [2] = tested on: Fusarium oxysporum; assay: Antifungal test for pathogens (PDA plate), F.c; assay type: cell-based; conditions: PDA plate medium
# [3] = tested on: wheat brown rust; assay: Brown rust control effect on wheat, seed treatment; assay type: in vivo; conditions: sixteen days after inoculation
# Protocol: A pot test was performed to evaluate the brown rust controlling effect on wheat using seed treatment. Compound (1(−)) or Compound (1(+)) was dissolved in DMSO so the treatment amount was 20 g ai/100 kg seeds or 2 g ai/100 kg seeds, and the solution was smeared on wheat seeds in a vial, and eight wheat seeds were seeded in a 80 cm^2 pot. These were irrigated from below in a greenhouse. Fifteen days after seeding, the seedlings were inoculated with wheat brown rust and then kept for two days in a box. These were again irrigated from below in a greenhouse.
# [4] = tested on: Rhizopus oryzae; assay: Antifungal test for pathogens (PDA plate), R.o; assay type: cell-based; conditions: PDA plate medium
# [5] = tested on: Ustilago nuda; assay: Antifungal test for pathogens (PDA plate), U.n; assay type: cell-based; conditions: PDA plate medium
# [6] = tested on: wheat leaf blight; assay: Leaf blotch control effect on wheat, foliar spray treatment; conditions: wettable powder foliar spray 1,000 L/ha, thirty days after inoculation
# Protocol: After blow drying the sprayed leaves, the plants were sprinkled and inoculated with wheat leaf blight. Thirty days after inoculation, the morbidity of the wheat to powdery mildew was evaluated according to the criteria shown in Table 3, and the preventative value was calculated using the following equation. When the average morbidity of the sprayed plot was higher than the average morbidity of the unsprayed plot, the preventative value was 0%. Preventative value (%)=(1−(average morbidity of the sprayed plot/average morbidity of the unsprayed plot))×100.
# [7] = tested on: Cercospora beticola; assay: Antifungal test for pathogens (PDA plate), C.b; assay type: cell-based; conditions: PDA plate medium
# [8] = tested on: powdery mildew; assay: Powdery mildew control effect on wheat, foliar spray treatment; assay type: in vivo; conditions: wettable powder foliar spray 1,000 L/ha, seven days after inoculation
# [9] = tested on: Microdochium nivale; assay: Antifungal test for pathogens (PDA plate), M.n; assay type: cell-based; conditions: PDA plate medium
# [10] = tested on: Rhizoctonia solani; assay: Antifungal test for pathogens (PDA plate), R.s; assay type: cell-based; conditions: PDA plate medium
# [11] = tested on: Rhynchosporium secalis; assay: Antifungal test for pathogens (PDA plate), R.sec; assay type: cell-based; conditions: PDA plate medium
# [12] = tested on: Wheat leaf blight (Septoria tritici); assay: Antifungal test against wheat leaf blight (PDA plate); conditions: 19 days at 25° C.
# Protocol: Wheat leaf blight (Septoria tritici) cultured beforehand in a medium plate was punched out with a 4 mm-diameter cork borer, and inoculated in the plate media containing the agent. After inoculation, they were cultured for 19 days at 25° C., and the growth of the fungus was determined by the diameter of the growth. The growth rate of the fungus in the plate media containing the agent was compared to the growth rate of the fungus in the plate medium not containing the agent, and the filamentous fungi inhibition rate was determined using the following equation. In the equation, R is the filamentous fungi inhibition rate (%), dc is the diameter of the fungal growth in the untreated plate media, and dt is the diameter of the fungal growth in the treated plate media. R=100(dc−dt)/dc
# [13] = tested on: Pyrenophora graminea; assay: Antifungal test for pathogens (PDA plate), P.g; assay type: cell-based; conditions: PDA plate medium
# [14] = tested on: wheat; assay: Phytotoxicity evaluation of growth inhibition of wheat seeds, seed treatment; assay type: in vivo; conditions: fifteen days after seeding, untreated 21 cm
# Protocol: A pot test was used to perform a phytotoxicity evaluation of growth inhibition using a seed treatment. Compound (1(−)) or Compound (1(+)) was dissolved in DMSO so the treatment amount was 2 or 20 g ai/100 kg seeds, and the solution was smeared on wheat seeds in a vial, and eight wheat seeds were seeded in a 80 cm^2 pot. These were irrigated from below in a greenhouse. Fifteen days after seeding, the length of the wheat was evaluated.
# [15] = tested on: Gibberella fujikuroi; assay: Antifungal test for pathogens (PDA plate), G.f; assay type: cell-based; conditions: PDA plate medium
# [16] = tested on: Alternaria alternata; assay: Antifungal test for pathogens (PDA plate), A.m; assay type: cell-based; conditions: PDA plate medium
# [17] = tested on: wheat leaf rust; assay: Rust control effect on wheat, foliar spray treatment; assay type: in vivo; conditions: wettable powder foliar spray 1,000 L/ha, twelve days after inoculation
# [18] = tested on: Botrytis cinerea; assay: Antifungal test for pathogens (PDA plate), B.c; assay type: cell-based; conditions: PDA plate medium
# [19] = tested on: Fusarium graminearum; assay type: cell-based; conditions: PDA plate medium
# [20] = tested on: Glomerella cingurata; assay: Antifungal test for pathogens (PDA plate), G.c; assay type: cell-based; conditions: PDA plate medium
# [21] = tested on: Penicillium italicum; assay: Antifungal test for pathogens (PDA plate), P.i; assay type: cell-based; conditions: PDA plate medium
# [22] = tested on: Phaeosphaeria nodorum; assay: Antifungal test for pathogens (PDA plate), P.n; assay type: cell-based; conditions: PDA plate medium
# [23] = tested on: Sclerotinia sclerotiorum; assay: Antifungal test for pathogens (PDA plate), S.s; assay type: cell-based; conditions: PDA plate medium
# [24] = tested on: various pathogenic filamentous fungi other than wheat leaf blight; assay type: cell-based; conditions: 10 mg/L, PDA plate; all 13 fungi: wheat blight, barley stripe, wheat fusarium, barley loose smut, rice blast, rice sheath blight, rice bakanae, apple leaf spot, Botrytis cinerea, cucumber vine crack, citrus blue mold, sugar beet brown spot, barley cloud fungus
# [25] = tested on: Pyricularia oryzae; assay type: cell-based; conditions: PDA plate medium
# [26] = tested on: Gaeumannomyces graminis; assay: Antifungal test for pathogens (PDA plate), G.g; assay type: cell-based; conditions: PDA plate medium
# [27] = tested on: Pseudocercoporella herpotrichoides; assay: Antifungal test for pathogens (PDA plate), P.h; assay type: cell-based; conditions: PDA plate medium
smiles,measurement,setting,value
"COC(=O)[C@]1(C)CC[C@H](Cc2ccc(Cl)cc2)[C@@]1(O)Cn1cncn1 (relative stereo) [Compound (1(+)), (1,2-cis, 1,3-cis)-3-(4-chlorobenzyl)-2-hydroxy-1-methyl-2-(1H-1,2,4-triazole-1-ylmethyl)cyclopentanecarboxylic acid methyl ester]",Preventative Value (%),[1]; sample conc. 12.5 mg/L,0%
same,Preventative Value (%),[1]; sample conc. 50.0 mg/L,17.6%
same,Antifungal Index of Each Strain F.c,[2]; Sample Conc. 1.25 mg/L,2 (70%-60%)
same,Antifungal Index of Each Strain F.c,[2]; Sample Conc. 2.5 mg/L,3 (80%-70%)
same,Antifungal Index of Each Strain F.c,[2]; Sample Conc. 5 mg/L,4 (90%-80%)
same,Preventative Value (%),[3]; seed treatment 2 g ai/100 kg seeds,0%
same,Preventative Value (%),[3]; seed treatment 20 g ai/100 kg seeds,5%
same,Antifungal Index of Each Strain R.o,[4]; Sample Conc. 1.25 mg/L,1 (<60%)
same,Antifungal Index of Each Strain R.o,[4]; Sample Conc. 2.5 mg/L,1 (<60%)
same,Antifungal Index of Each Strain R.o,[4]; Sample Conc. 5 mg/L,1 (<60%)
same,Antifungal Index of Each Strain U.n,[5]; Sample Conc. 1.25 mg/L,2 (70%-60%)
same,Antifungal Index of Each Strain U.n,[5]; Sample Conc. 2.5 mg/L,3 (80%-70%)
same,Antifungal Index of Each Strain U.n,[5]; Sample Conc. 5 mg/L,4 (90%-80%)
same,Preventative Value (%),[6]; sample conc. 12.5 mg/L,67.5%
same,Preventative Value (%),[6]; sample conc. 50 mg/L,77.5%
same,Antifungal Index of Each Strain C.b,[7]; Sample Conc. 0.08 mg/L,1 (<60%)
same,Antifungal Index of Each Strain C.b,[7]; Sample Conc. 0.16 mg/L,2 (70%-60%)
same,Antifungal Index of Each Strain C.b,[7]; Sample Conc. 0.31 mg/L,3 (80%-70%)
same,Antifungal Index of Each Strain C.b,[7]; Sample Conc. 0.63 mg/L,4 (90%-80%)
same,Preventative Value (%),[8]; sample conc. 12.5 mg/L,24%
same,Preventative Value (%),[8]; sample conc. 50.0 mg/L,94%
same,Antifungal Index of Each Strain M.n,[9]; Sample Conc. 1.25 mg/L,1 (<60%)
same,Antifungal Index of Each Strain M.n,[9]; Sample Conc. 2.5 mg/L,1 (<60%)
same,Antifungal Index of Each Strain M.n,[9]; Sample Conc. 5 mg/L,1 (<60%)
same,Antifungal Index of Each Strain R.s,[10]; Sample Conc. 1.25 mg/L,2 (70%-60%)
same,Antifungal Index of Each Strain R.s,[10]; Sample Conc. 2.5 mg/L,2 (70%-60%)
same,Antifungal Index of Each Strain R.s,[10]; Sample Conc. 5 mg/L,4 (90%-80%)
same,Antifungal Index of Each Strain R.sec,[11]; Sample Conc. 0.08 mg/L,3 (80%-70%)
same,Antifungal Index of Each Strain R.sec,[11]; Sample Conc. 0.16 mg/L,5 (>90%)
same,Antifungal Index of Each Strain R.sec,[11]; Sample Conc. 0.31 mg/L,5 (>90%)
same,Antifungal Index of Each Strain R.sec,[11]; Sample Conc. 0.63 mg/L,5 (>90%)
same,Antifungal Index,[12]; sample conc. 0.31 mg/L,3 (80%-70%)
same,Antifungal Index,[12]; sample conc. 0.63 mg/L,3 (80%-70%)
same,Antifungal Index,[12]; sample conc. 1.25 mg/L,5 (>90%)
same,Antifungal Index of Each Strain P.g,[13]; Sample Conc. 0.08 mg/L,1 (<60%)
same,Antifungal Index of Each Strain P.g,[13]; Sample Conc. 0.16 mg/L,1 (<60%)
same,Antifungal Index of Each Strain P.g,[13]; Sample Conc. 0.31 mg/L,4 (90%-80%)
same,Antifungal Index of Each Strain P.g,[13]; Sample Conc. 0.63 mg/L,5 (>90%)
same,Average Plant Length (cm),[14]; wheat seed treatment 2 g ai/100 kg seeds,22 cm
same,Average Plant Length (cm),[14]; wheat seed treatment 20 g ai/100 kg seeds,14 cm
same,Antifungal Index of Each Strain G.f,[15]; Sample Conc. 1.25 mg/L,1 (<60%)
same,Antifungal Index of Each Strain G.f,[15]; Sample Conc. 2.5 mg/L,2 (70%-60%)
same,Antifungal Index of Each Strain G.f,[15]; Sample Conc. 5 mg/L,3 (80%-70%)
same,Antifungal Index of Each Strain A.m,[16]; Sample Conc. 1.25 mg/L,1 (<60%)
same,Antifungal Index of Each Strain A.m,[16]; Sample Conc. 2.5 mg/L,2 (70%-60%)
same,Antifungal Index of Each Strain A.m,[16]; Sample Conc. 5 mg/L,3 (80%-70%)
same,Preventative Value (%),[17]; sample conc. 0.8 mg/L,0%
same,Preventative Value (%),[17]; sample conc. 3.1 mg/L,0%
same,Antifungal Index of Each Strain B.c,[18]; Sample Conc. 1.25 mg/L,1 (<60%)
same,Antifungal Index of Each Strain B.c,[18]; Sample Conc. 2.5 mg/L,1 (<60%)
same,Antifungal Index of Each Strain B.c,[18]; Sample Conc. 5 mg/L,4 (90%-80%)
same,Antifungal Index of Each Strain F.g,[19]; Sample Conc. 1.25 mg/L,1 (<60%)
same,Antifungal Index of Each Strain F.g,[19]; Sample Conc. 2.5 mg/L,1 (<60%)
same,Antifungal Index of Each Strain F.g,[19]; Sample Conc. 5 mg/L,2 (70%-60%)
same,Antifungal Index of Each Strain G.c,[20]; Sample Conc. 1.25 mg/L,1 (<60%)
same,Antifungal Index of Each Strain G.c,[20]; Sample Conc. 2.5 mg/L,1 (<60%)
same,Antifungal Index of Each Strain G.c,[20]; Sample Conc. 5 mg/L,2 (70%-60%)
same,Antifungal Index of Each Strain P.i,[21]; Sample Conc. 0.08 mg/L,1 (<60%)
same,Antifungal Index of Each Strain P.i,[21]; Sample Conc. 0.16 mg/L,1 (<60%)
same,Antifungal Index of Each Strain P.i,[21]; Sample Conc. 0.31 mg/L,1 (<60%)
same,Antifungal Index of Each Strain P.i,[21]; Sample Conc. 0.63 mg/L,2 (70%-60%)
same,Antifungal Index of Each Strain P.n,[22]; Sample Conc. 1.25 mg/L,2 (70%-60%)
same,Antifungal Index of Each Strain P.n,[22]; Sample Conc. 2.5 mg/L,2 (70%-60%)
same,Antifungal Index of Each Strain P.n,[22]; Sample Conc. 5 mg/L,2 (70%-60%)
same,Antifungal Index of Each Strain S.s,[23]; Sample Conc. 1.25 mg/L,1 (<60%)
same,Antifungal Index of Each Strain S.s,[23]; Sample Conc. 2.5 mg/L,1 (<60%)
same,Antifungal Index of Each Strain S.s,[23]; Sample Conc. 5 mg/L,1 (<60%)
same,filamentous fungi inhibition rate R,[24],≥ 80%
same,Antifungal Index of Each Strain P.o,[25]; Sample Conc. 1.25 mg/L,1 (<60%)
same,Antifungal Index of Each Strain P.o,[25]; Sample Conc. 2.5 mg/L,2 (70%-60%)
same,Antifungal Index of Each Strain P.o,[25]; Sample Conc. 5 mg/L,5 (>90%)
same,Antifungal Index of Each Strain G.g,[26]; Sample Conc. 1.25 mg/L,1 (<60%)
same,Antifungal Index of Each Strain G.g,[26]; Sample Conc. 2.5 mg/L,2 (70%-60%)
same,Antifungal Index of Each Strain G.g,[26]; Sample Conc. 5 mg/L,4 (90%-80%)
same,Antifungal Index of Each Strain P.h,[27]; Sample Conc. 1.25 mg/L,1 (<60%)
same,Antifungal Index of Each Strain P.h,[27]; Sample Conc. 2.5 mg/L,1 (<60%)
same,Antifungal Index of Each Strain P.h,[27]; Sample Conc. 5 mg/L,1 (<60%)
